# Test results taken from patent publication US20170153257A1, “METHODS OF ESTIMATING LOGD OF TAGGED COMBINATORIAL LIBRARY COMPOUNDS” (DiCE Molecules SV, LLC, priority 2015, published 2017).
# Entries after “also recorded” stand apart in the source; their conditions may differ. Residues, ends and D or L forms follow the SMILES beside them. {Stearyl} = n-C18 stearyl group added with a stearyl phosphoramidite
# Assay: Gel mobility on standard agarose gel without vesicles
# Type: physicochemical
# Conditions: ligand attached to 5′ end of DNA; 1.5% agarose, no vesicles; FIG. 1
# Description: Low melt agarose gels (standard 1× TBE, 1.5% agarose), without vesicles were prepared by conventional methods (Molecular Cloning: a Laboratory Manual, T. Maniatis, E. F. Fritsch & J. Sambrook (1982)).
# After the gels have solidified, samples are loaded, run at 100 volts, stained with ethidium bromide and photographed by standard methods (Molecular Cloning; Maniatis et al.; Cold Spring Harbor press, 1982).
row,Molecule,mobility on standard agarose gel
1,"Compound 1: stearyl (n-C18H37) group attached to 5′ end of DNA oligonucleotide X (SEQ. ID. No. 1) (DNA GCTCGTCGCATTCGGCACGC; DNA, 5' {Stearyl}, backbone and methylation of C not given here; further chemistry not fully specified)",modestly retarded

# Assay: Gel mobility on agarose gel containing 0.9% CTAB/SOS vesicles
# Type: physicochemical
# Conditions: ligand attached to 5′ end of DNA; 1.5% agarose, 0.9% (w/v) CTAB/SOS vesicles; relative to reference gels lacking vesicles; FIG. 2
# Description: Vesicles are prepared essentially as described by Pascoe et al., Electrophoresis 2003, 24: 4227-4240. Briefly, 0.45 gm of CTAB/SOS (CTAB=hexadecyltrimethylammonium bromide, Sigma catalogue #H9151; SOS=sodium octyl sulfate. Sigma catalogue #O4003)) at a ratio of 3:7 is dissolved in 1× TBE [Trisma-borate-EDTA electrophoresis buffer, Maniatis et al., p. 454] and heated to 50° C. in a water bath to assure dissolution. The solution is cooled overnight to room temperature and then filtered through a 0.2 micron filter. Vesicles prepared in this manner are reported to be stable for multiple days at room temperature.
# Low melting agarose (0.75 gm) is dissolved in 25 mL 1× TBE and placed in a water bath at 50° C. along with a separate tube of vesicles. After equilibrium is reached, the tubes are mixed in a preheated flask, gently swirled and poured into a standard horizontal mini-gel apparatus to provide a vesicle agarose gel ((standard 1× TBE, 1.5% agarose, 0.9%). […]
# FAM is 5′-6-FAM (Fluorescein). The 6-FAM moiety is comprised of a single isomer derivative of fluorescein and is the most commonly used fluorescent dye attachment for oligonucleotides and is compatible with most fluorescence detection equipment. It becomes protonated and has decreased fluorescence below pH 7; it is typically used in the pH range 7.5-8.5. […]
row,Molecule,mobility on agarose gel with vesicles
1,"Compound 1: stearyl (n-C18H37) group attached to 5′ end of DNA oligonucleotide X (SEQ. ID. No. 1) (DNA GCTCGTCGCATTCGGCACGC; DNA, 5' {Stearyl}, backbone and methylation of C not given here; further chemistry not fully specified)",greatly retard the mobility; also recorded: retarded

# Assay: Reverse phase HPLC of steroids linked to a 220 base pair oligonucleotide (Agilent AdvanceBio Oligonucleotide column)
# Type: physicochemical
# Conditions: 220 base pair conjugates, acetonitrile/10 mM ammonium acetate gradient
# Description: HPLC purified 20 base pair single stranded oligomers operatively linked to alkyl or steroid ligands were transformed into a double stranded 220 base pair gene via polymerase chain reaction (PCR). The oligomers operatively linked to alkyl or steroid ligands and a 20 base pair reverse oligomer (1 uM) were used as PCR primers in a 100 uL reaction with 10 ng of double stranded 220 base pair gene template with 2× Fusion Flash High-Fidelity PCR Master Mix (ThermoFisher F548S). Thermocycling was performed at 98 C.° for 10 s, followed by 10 cycles of 98 C°, 1 s, 55 C°, 5 s, 72 C°, 10 s then followed by an additional protocol of 98 C.° for 10 s followed by 15 cycles of 98 C°, 1 s, 50 C°, 5 s, 72 C°, 10 s. PCR products of 220 base pair were confirmed via gel electrophoresis, purified with the QIAquick PCR Purification Kit (Qiagen) and DNA concentration was quantified via nanodrop A260 measurements.
# Compounds 18-24, prepared as described in Example 10 from the analogous 20 base pair oligomers were run on a reverse phase HPLC column, using an Agilent AdvanceBio Oligonucleotide column and acetonitrile/ammonium acetate gradient. […] Without wishing to be bound by theory, inclusion of appropriate standard compounds may provide useful surrogates of absolute values of log D. It should be also noted that chromLogD and Chrom20LogD may be determined by extensions of the above experiment.
row,Molecule,resolution / elution by reversed phase HPLC
1,acetate,eluting in the void volume

# Assay: eLogD by shake flask method in aqueous buffer/octanol mixture
# Conditions: linear peptides, N terminal acetylated and C terminal amide; pH 7.4, octanol-water
# Description: “eLogD,” as used herein, refers to a determination of LogD by shake flask method in aqueous buffer/octanol mixture.
# “LogD(pH),” as used herein, refers to a distribution of a compound between aqueous buffer and octanol at a given pH. Unless otherwise stated, the pH is assumed to be 7.4 and be written as LogD.
row,Molecule,eLogD (7.4)
1,CC(=O)N[C@@H](C)C(=O)N[C@@H](Cc1ccc(O)cc1)C(=O)N[C@@H](CC(C)C)C(N)=O [AYL] (Ac-Ala-Tyr-Leu-NH2),−0.06
2,CC[C@H](C)[C@H](NC(=O)[C@H](CCC(=O)O)NC(C)=O)C(=O)N[C@@H](Cc1ccccc1)C(N)=O [EIF (D718)] (Ac-Glu-Ile-Phe-NH2),−2.30
3,CC[C@H](C)[C@H](NC(C)=O)C(=O)N[C@@H](Cc1ccccc1)C(=O)N[C@@H](C)C(N)=O [IFA] (Ac-Ile-Phe-Ala-NH2),0.46
4,CC[C@H](C)[C@H](NC(C)=O)C(=O)N[C@@H](CCSC)C(=O)N[C@@H](Cc1ccccc1)C(N)=O [IMF] (Ac-Ile-Met-Phe-NH2),1.25
5,CC(=O)N[C@@H](CCCNC(=N)N)C(=O)N[C@@H](Cc1ccccc1)C(=O)N[C@@H](CC(C)C)C(N)=O [RFL] (Ac-Arg-Phe-Leu-NH2),−1.12
6,CC[C@H](C)[C@H](NC(=O)[C@H](CC(C)C)NC(=O)[C@H](CO)NC(C)=O)C(N)=O [SLI] (Ac-Ser-Leu-Ile-NH2),−0.06
7,CC(=O)N[C@@H](Cc1c[nH]c2ccccc12)C(=O)NCC(=O)NCC(N)=O [WGG] (Ac-Trp-Gly-Gly-NH2),−0.80
8,Ac-ALLGF-NH2 [ALLGF],1.05
9,Ac-YTGFL-NH2 [YTGFL],0.57
